Experimental data reported in patent US12441734B2, “Ferroptosis inhibitor and use therefor” (JICHI MEDICAL UNIVERSITY, priority 2021, dated 2025).
Entries after “also recorded” stand apart in the source; their conditions may differ.

Key:
[1] = test system: Leigh syndrome patient cells (LS^ND3); assay: Test I: suppression of BSO-induced cell death, Leigh syndrome patient cells; assay type: cell-based, human; conditions: 100 μM BSO alone or coadded with inhibitor (1 μM; GSK872 1-10 μM, v-VAD 1, 10 μM), 48 hours; FIG. 1B, 3B
Text: (§1) In the drawing, the abscissa depicts test compounds, and the ordinate depicts the cell viability (%) of each treated plot when the number of live cells in a control non-supplemented with BSO is defined as 100%.
as §1

[2] = test system: Leigh syndrome patient cells (LS^ND3); assay: Test I: suppression of RSL-3-induced cell death, Leigh syndrome patient cells; assay type: cell-based, human; conditions: 50 nM RSL-3 alone or coadded with inhibitor, 48 hours, FIG. 2B, 4B
Text: (§2) In the drawing, the abscissa depicts test compounds, and the ordinate depicts the cell viability (%) of each treated plot when the number of live cells in a control non-supplemented with RSL-3 is defined as 100%.
as §2

[3] = test system: normal cells (Promo1 cells); assay: Test I: RSL-3 and test compounds on normal cells; assay type: cell-based, human; conditions: RSL-3 alone or coadded with inhibitor, 48 hours; FIG. 4A, 8A
Text: as §2, §2, §2

[4] = test system: mitochondrial cardiomyopathy patient cells (ME250-1); assay: Test I: suppression of BSO-induced cell death, mitochondrial cardiomyopathy patient cells; assay type: cell-based, human; conditions: 50-200 μM BSO alone or coadded with drug; FIG. 5B
[5] = test system: mitochondrial cardiomyopathy patient cells (ME250-1); assay: Test I: suppression of RSL-3-induced cell death, mitochondrial cardiomyopathy patient cells; assay type: cell-based, human; conditions: 10-140 nM RSL-3 alone or coadded with drug; FIG. 8B
Text: as §2

[6] = test system: mitochondrial hepatopathy patient cells (ME263-1); assay: Test I: suppression of RSL-3-induced cell death, mitochondrial hepatopathy patient cells; assay type: cell-based, human; conditions: 10-140 nM RSL-3 coadded with drug; FIG. 9B
[7] = test system: Kearns-Sayre syndrome (KSS) patient cells (ME130-1); assay: Test I: suppression of RSL-3-induced cell death, KSS patient cells; assay type: cell-based, human; conditions: 10-140 nM RSL-3 coadded with drug; FIG. 10B
dopamine D2 receptor = dopamine D2 receptor (Homo sapiens (Human), UniProt P14416); assay: Test IV: dopamine D2 receptor binding activity (GeneBLAzer D2-Gqo5-NEAT-bla CHO-K1 Cell-based Assay); conditions: CHO-K1 reporter cells, 5 hours
Chain of dopamine D2 receptor (P14416 whole entry): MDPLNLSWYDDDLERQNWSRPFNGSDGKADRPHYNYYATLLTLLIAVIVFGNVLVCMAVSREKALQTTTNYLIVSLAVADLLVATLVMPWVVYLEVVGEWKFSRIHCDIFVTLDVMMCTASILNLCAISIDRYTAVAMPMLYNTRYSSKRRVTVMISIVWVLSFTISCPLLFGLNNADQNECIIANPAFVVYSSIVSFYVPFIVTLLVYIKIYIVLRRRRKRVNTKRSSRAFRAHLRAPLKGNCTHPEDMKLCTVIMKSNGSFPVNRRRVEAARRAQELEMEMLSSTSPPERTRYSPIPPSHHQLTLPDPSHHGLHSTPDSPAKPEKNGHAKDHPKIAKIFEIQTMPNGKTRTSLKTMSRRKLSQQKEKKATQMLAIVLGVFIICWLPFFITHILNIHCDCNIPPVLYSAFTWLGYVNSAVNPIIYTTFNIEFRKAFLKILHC
Experimental: In this test, the dopamine D2 receptor binding activity of each test compound was measured using GeneBLAzer D2-Gqo5-NEAT-bla CHO-K1 Cell-based Assay (Thermo Fisher Scientific, Inc.). The CHO cells are designed such that a signal transduction pathway is activated by addition of a drug to express a reporter gene (P lactamase). […] Therefore, the binding activity of the test compound can be measured by measuring a blue fluorescence/green fluorescence ratio. The CHO cells were inoculated at 10,000 cells/well to a 384-well plate and cultured for 16 to 20 hours in a CO2 incubator. […] A substrate mix was added to the cells and incubated at room temperature for 2 hours. […] The respective EC50 values of the test compounds were determined from the measured fluorescence ratios using GraphPad Prism 8.

[8] = test system: human liver cancer cell line (Huh7); assay: Test V: suppression of RSL-3-induced cell death in liver cancer cell system (LDH, MTT); assay type: cell-based; set-up: key to LDH (LDH activity, cell death): relative to control without RSL-3 (= 1); conditions: for cell death induced by RSL-3 (in words): Huh7, RSL-3 0.5 μM
Experimental: The ferroptosis inducer used was RSL-3.
At the stage where 70% confluency was attained, the medium was replaced with the medium for the test, and DMSO or each test compound (final concentration of GSK872: 5 μM, and final concentration of the other compounds: 1 μM) was added to the cells in each well, which were then cultured for 1 hour. Then, the ferroptosis inducer (final concentration: 0.5 μM) was added to the cells in each well, which were then cultured for 24 hours. After the completion of culture, cell death suppressive activity was measured with lactate dehydrogenase (LDH) activity as an index while cell proliferation and cell viability were measured with activity of reducing yellow tetrazolium salt (MTT) into formazan as an index.
The values in the table are relative values when the LDH activity and MTT value of a control non-supplemented with RSL-3 are each defined as 1.

SH-SY5Y cells = assay: Test VI: inhibition of rotenone-induced neuronal death (LDH assay); assay type: cell-based, human; set-up: key: ++: the case where a concentration-dependent inhibitory effect on rotenone-induced cell death was able to be confirmed twice; +: In the third test, the case where the concentration-dependent inhibitory effect was able to be confirmed; ±: the case where no concentration-dependent inhibitory effect was able to be confirmed; −: The case where any inhibitory effect on rotenone-induced cell death was able to be confirmed in none of the two tests; conditions: rotenone 1 μM, compound 10 nM-10 μM (Apo 0.1 nM-10 μM), 48 hours
Experimental: After the completion of culture, rotenone-induced cell death was measured using Cytotoxicity LDH Assay Kit-WST (Dojindo Laboratories). […] The test was conducted twice, and the case where a concentration-dependent inhibitory effect on rotenone-induced cell death was able to be confirmed twice was rated as (++). If the inhibitory effect was confirmed in one of the two tests and no inhibitory effect was confirmed in the other test, the third test was conducted. In the third test, the case where the concentration-dependent inhibitory effect was able to be confirmed was rated as (+), and the case where no concentration-dependent inhibitory effect was able to be confirmed was rated as (±). The case where any inhibitory effect on rotenone-induced cell death was able to be confirmed in none of the two tests was rated as (−).

[9] = test system: Kearns-Sayre syndrome (KSS) patient cells (ME130-1); assay: Test I: suppression of BSO-induced cell death, KSS patient cells; conditions: BSO coadded with drug; FIG. 7B
[10] = test system: mitochondrial hepatopathy patient cells (ME263-1); assay: Test I: suppression of BSO-induced cell death, mitochondrial hepatopathy patient cells; conditions: 50-200 μM BSO coadded with drug; FIG. 6B
[11] = Huh7, test compound 1 μM (GSK872 5 μM) 1 hour, then RSL-3 0.5 μM 24 hours, relative value, control non-supplemented with RSL-3 = 1

| SMILES | cell death induced by BSO (cell viability) [1] | cell death induced by RSL-3 (cell viability) ([2]; listed as Apo) | cell death (cell viability) in normal cells, RSL-3 [3] | cell death induced by BSO (cell viability) [4] | cell death induced by RSL-3 (cell viability) [5] | cell death induced by RSL-3 (cell viability) [6] | cell death induced by RSL-3 (cell viability) [7] | Dopamine D2 receptor binding activity, Activity intensity (dopamine D2 receptor) | viability at 1 µM ([8]; Homo sapiens, Huh-7, Huh7, test compound 1 μM (GSK872 5 μM) 1 hour, then RSL-3 0.5 μM 24 hours, relative value, control non-supplemented with RSL-3 = 1, read-out: MTT (cell proliferation and cell viability)) | cell death induced by RSL-3 (in words) [8] | LDH (LDH activity, cell death) [8, 11] | Inhibitory effect on rotenone-induced cell death (SH-SY5Y cells) | cell death induced by BSO (cell viability) [9] | cell death induced by BSO (cell viability) [10] | cell death induced by RSL-3 (cell viability) [2] | MTT (cell proliferation and cell viability) [8, 11] |
| --- | --- | --- | --- | --- | --- | --- | --- | --- | --- | --- | --- | --- | --- | --- | --- | --- |
| CN1CCc2cccc3c2[C@H]1Cc1ccc(O)c(O)c1-3 [Apomorphine, apomorphine] | suppressed | the same or similar results; also recorded: same or similar tendency as above was more strongly confirmed | suppressed | suppressed | suppressed | the same or similar results | the same or similar results | ++ | 67% | suppressed | 1.82 | ± | the same or similar results | the same or similar results |  |  |
| CCOC(=O)c1ccc(NC2CCCCC2)c(N)c1 [Fer-1, ferrostatin-1] | suppressed |  | suppressed |  | suppressed | the same or similar results | the same or similar results |  |  | suppressed | 2.50 |  |  |  | the same or similar results; also recorded: same or similar tendency as above was more strongly confirmed | 0.86 |
